Results taken from the supplement of paper PMC10307832.

Legend:
Test in all cases: relative viability (nuclei count vs DMSO), 5 days (fraction); higher = more cells survive
[1] = compound: CCn1c(-c2nonc2N)nc2c(C#CC(C)(C)O)ncc(OC[C@H]3CCCNC3)c21 + CC(C)C[C@H](NC(=O)[C@H](Cc1ccccc1)NC(=O)c1cnccn1)B(O)O [Bortezomib] (partner 0.002 µM)
Summary of the method: (§1)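 Lung cancer cell lines in 1536-well plates were dosed by pin tool the day after seeding, either with one drug alone or with a fixed anchor-drug dose plus five library-drug doses (not always all listed) in √10 steps. After 5 days, cells were fixed and their nuclei stained in one step (final 0.05% Triton X-100, 1% formaldehyde, 1 ug/ml Hoechst), then counted on 4× images. Relative viability is the nuclei count in treated wells divided by that in vehicle wells. Values are medians of duplicate plates.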

[2] = compound: CCn1c(-c2nonc2N)nc2c(C#CC(C)(C)O)ncc(OC[C@H]3CCCNC3)c21 + NC(=O)Nc1cc(-c2cccc(F)c2)sc1C(=O)N[C@H]1CCCNC1 [AZD7762] (partner 0.2 µM)
Summary of the method: as §1

[3] = compound: CCOC1=CC=CC=C1N=NC2=C(NN(C2=O)C3=NC(=CS3)C4=CC=CC=C4)C [BAM7] + C[C@@H](Oc1cc(-c2cnn(C3CCNCC3)c2)cnc1N)c1c(Cl)ccc(F)c1Cl [Crizotinib] (partner 1 µM)
Summary of the method: as §1

[4] = compound: CCOC1=CC=CC=C1N=NC2=C(NN(C2=O)C3=NC(=CS3)C4=CC=CC=C4)C [BAM7] + CC(C)C[C@H](NC(=O)[C@H](Cc1ccccc1)NC(=O)c1cnccn1)B(O)O [Bortezomib] (partner 0.002 µM)
Summary of the method: as §1

Cell Line | relative viability ([1]; first compound 0.01 µM) | relative viability ([1]; first compound 0.03162 µM) | relative viability ([1]; first compound 0.1 µM) | relative viability ([1]; first compound 0.3162 µM) | relative viability ([1]; first compound 1 µM) | relative viability ([2]; first compound 0.01 µM) | relative viability ([2]; first compound 0.03162 µM) | relative viability ([2]; first compound 0.1 µM) | relative viability ([2]; first compound 0.3162 µM) | relative viability ([2]; first compound 1 µM) | relative viability ([3]; first compound 0.5 µM) | relative viability ([3]; first compound 5 µM) | relative viability ([3]; first compound 15.81 µM) | relative viability ([3]; first compound 50 µM) | relative viability ([4]; first compound 0.5 µM) | relative viability ([4]; first compound 5 µM) | relative viability ([4]; first compound 15.81 µM) | relative viability ([4]; first compound 50 µM)
NCI-H1755 | 0.956 | 0.917 | 0.939 | 0.923 | 0.906 | 0.501 | 0.418 | 0.382 | 0.406 | 0.425 | 0.917 | 0.935 | 0.829 | 0.85 | 1.02 | 1.01 | 0.949 | 0.95
HARA | 1.1 | 1.14 | 1.08 | 1.07 | 1.11 | 0.269 | 0.629 | 0.485 | 0.156 | 0.299 | 1.1 | 1.15 | 0.887 | 1 | 1.14 | 1.26 | 1.09 | 1.14
NCI-H596 | 1.02 | 0.956 | 0.969 | 1.38 | 0.999 | 1.18 |  | 1.12 | 1.21 | 1.06 | 0.97 | 1.03 | 0.913 | 0.978 | 1.01 | 1.13 | 0.889 | 1.25
NCI-H23 | 0.974 | 1.06 | 0.913 | 0.861 | 1.13 | 0.222 | 0.268 | 0.228 | 0.208 | 0.265 | 0.587 | 0.535 | 0.424 | 0.515 | 1.23 | 1.05 | 0.933 | 1.12
LCLC-97TM1 | 0.756 | 0.383 | 0.794 | 0.459 | 0.522 | 0.279 | 0.269 | 0.206 | 0.292 | 0.294 | 0.305 | 0.386 | 0.245 | 0.332 | 0.721 | 0.608 | 0.898 | 0.76
EPLC-272H | 0.859 | 0.957 | 0.894 | 0.96 | 0.847 | 0.198 | 0.171 | 0.17 | 0.192 | 0.211 | 0.928 | 0.986 | 1.02 | 0.982 | 0.893 | 0.969 | 0.827 | 0.942
NCI-H1915 | 0.982 | 1.01 | 0.904 | 0.975 | 0.921 | 0.699 | 0.698 | 0.672 | 0.648 | 0.607 | 0.892 | 0.918 | 0.874 | 0.891 | 0.988 | 1.01 | 1.09 | 1.03
NCI-H2405 | 0.982 | 0.897 | 0.91 | 0.929 | 0.967 | 0.773 | 0.77 | 0.792 | 0.731 | 0.721 | 0.896 | 0.965 | 0.796 | 0.805 | 1.02 | 1.04 | 1.01 | 0.991
NCI-H322M | 1.21 | 1.18 | 1.26 | 1.19 | 1.19 | 0.591 | 0.661 | 0.562 | 0.516 | 0.625 | 0.859 | 0.798 | 0.811 | 0.641 | 1.2 | 1.2 | 1.05 | 1.02
